Each block holds one molecule with its values, some of them ahead of it.
Tests used:
[1] = tested on: PARP cleavage in MCF10A cells; assay: Western blot of PARP cleavage; type: cell-based, human; details: 24 h, 25 μM 6 or 30 μM TAT-Pc
Experimental: Figure 5 Cellular effects of compounds 3, 4 and 6. MCF10A cells were incubated for 24 h with either DMSO or 30 μM TAT or 30 μM TAT-Pc or 25 μM 6 (a) or with increasing concentrations of 6 (b) or 3 (c). MCF10A cells were incubated for 48 h with either DMSO or with increasing concentrations of 3 or 6 (d). Cells were then lysed and analyzed by western blot with the indicated antibodies. Blot images are representative of at least three independent experiments. Uncropped blots are shown in Supplementary Fig. S16. (e) MDA-MB231 cells were treated with 40 μM 6 (⚬), 4 (▴) or 3 (X). (f) MDA-MB231 cells were treated for 30 h with increasing concentrations of 6 (⚬) or 4 (▴). Insert: cells were treated for 30 h with 80 μM 6 or 10 μM CX-4945. […] Cell death was automatically quantified from images captured every 3 h for the duration of the experiments using an Essen IncuCyte Zoom live-cell microscopy incubator. […]
Cells were lysed in RIPA buffer (10 mM Tris-HCl pH 7.4, 150 mM NaCl, 1% Triton X-100, 0.1% SDS, 0.5% DOC and 1 mM EDTA) containing both protease- and phosphatase-inhibitor cocktails (Sigma-Aldrich; P8340, P2850, P5726). Cell homogenates were quantified using BCA protein Assay kit (Thermo Scientific). […] Luminata Forte Western HRP substrate (Millipore) was added and membranes were read with Fusion Fx7 (PerkinElmer). […] Images were analyzed and band intensities were quantified using ImageJ software. […]

CK2α2β2 holoenzyme = molecular target: T1, CK2α2β2 holoenzyme (Homo sapiens, UniProt P68400); assay: Olig2 phosphorylation assay (CK2β-dependent protein substrate); type: biochemical; details: 50 μM compound; GST-Olig-2, CK2α, increasing CK2β
T1 construct: made in house; host or cells: Escherichia coli (CK2α)
T1 sequence (P68400 whole entry): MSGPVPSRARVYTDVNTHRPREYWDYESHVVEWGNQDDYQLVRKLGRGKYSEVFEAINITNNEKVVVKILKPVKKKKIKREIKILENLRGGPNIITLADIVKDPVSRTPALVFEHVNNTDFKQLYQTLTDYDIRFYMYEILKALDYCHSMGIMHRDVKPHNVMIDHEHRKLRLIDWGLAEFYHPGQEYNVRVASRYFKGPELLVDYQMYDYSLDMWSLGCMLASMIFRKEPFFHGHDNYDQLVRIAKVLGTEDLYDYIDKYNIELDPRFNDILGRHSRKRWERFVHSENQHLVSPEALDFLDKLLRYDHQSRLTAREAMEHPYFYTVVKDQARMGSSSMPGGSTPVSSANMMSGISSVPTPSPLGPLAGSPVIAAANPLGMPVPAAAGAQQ
Experimental: For Olig2 phosphorylation assay, GST-Olig2 fusion protein (3.7 μg) was incubated with 200 nM CK2α, in the absence or presence of 50 μM compound 1 and increasing concentrations of CK2β. Samples were analyzed by SDS PAGE and subjected to autoradiography. Phosphoproteins were quantified by densitometry scanning. For eIF2 peptide phosphorylation assay, the CK2β-dependent peptide substrate (600 μM) was incubated with CK2α (40–50 nM) and increasing concentrations of compound 1 or/and CK2β.
Fig. S3. Compound 1 inhibits CK2β-dependent phosphorylation of Olig2 transcription factor and CK2β-dependent autophosphorylation. (a) CK2α (200 nM) was incubated with increasing concentrations of CK2β in the absence or presence of compound 1 (50 μM) followed by the addition of GST-Olig2 (3.7 μg), [γ^32P]-ATP (100 μM, 1 μCi) and MgCl2 (10 mM). Samples were analyzed by SDS PAGE and subjected to autoradiography. Left and right parts of the image are from the same gel (see Supplementary Fig. S16). (b) ^32P incorporated into GST-Olig2 was determined by densitometry scanning and is expressed as arbitrary units; (c) CK2β (300 nM) was incubated with increasing concentrations of compound 1, 10 μM [γ^32P] […] Phosphorylated proteins were separated by SDS/PAGE and analyzed by autoradiography (c) or Coomassie Blue staining (d); ^32P incorporation into CK2β was quantified and expressed as arbitrary units (e). […]

[2] = Solubility in the protein buffer (WaterLOGSY NMR); type: physicochemical; details: relative to the other compounds
Experimental: Standard 1D, STD, and WaterLOGSY NMR spectra were acquired at 20 °C with a Bruker 600 MHz NMR spectrometer, equipped with a Z-gradient cryoprobe. WaterLOGSY mixing time was 1.5 s. Both STD and WaterLOGSY spectra were recorded for each sample. WaterLOGSY spectra in the absence of protein receptor were recorded with 300 µM compound to assess the compound solubility. All the NMR experiments were performed at 293 K with excitation sculpting to suppress peaks from water. 1D and STD experiments were performed using identical experimental conditions (spin lock, interscan delays), and parameters for the STD experiments (saturation frequency and saturation time) were identical for all samples. […] NMR tubes contained 2 μM CK2 with 300 μM of 4.

Structure (SMILES): COc1[nH]c2ccc(F)cc2c1C(=O)OCC1CCN(CCNS(=O)(=O)c2ccccc2)CC1.Cl [Compound 6]
- PARP cleavage [1]: No significant PARP cleavage

Structure (SMILES): COc1[nH]c2ccc(F)cc2c1C(=O)OCC1CCN(CCNS(C)(=O)=O)CC1 [Compound 1]
- decrease in Olig-2 phosphorylation (CK2α2β2 holoenzyme): ~ 50%

- solubility in the protein buffer [2]: highest solubility
Structure (SMILES): O=C(OCC1CCN(CCNS(=O)(=O)c2ccccc2)CC1)c1c[nH]c2ccccc12 [Compound 4, (1-(2-(Phenylsulfonamido)ethyl)piperidin-4-yl)methyl 1H-indole-3-carboxylate]

— PMC6828666, “Discovery of holoenzyme-disrupting chemicals as substrate-selective CK2 inhibitors” (Scientific Reports, 2019)
